Key:
[1] = biological target: hyaluronidase; settings: previous study; read-out: IC50 against hyaluronidase; cited from earlier work
[2] = biological target: T1, elastase (Sus scrofa, UniProt P00772); experiment: Colorimetric elastase inhibition assay; type: biochemical; settings: mean ± SD, read-out: Inhibitory activity Elastase; for inhibition at 50 µM: 50 μM compound; for inhibition at 100 µM: 100 μM compound
T1 construct: purchased Sigma-Aldrich (St. Louis, MO, USA)
Experimental: (§1) The colorimetric assays, including AChE, trypsin, chymotrypsin, and elastase were assayed according to previously described methods. The hydrolysis of AChE was monitored according to the formation of yellow 5-thio-2-nitrobenzoate anions at 405 nm for 15 min, which were produced by the reaction of DTNB with thiocholine released from ACh. All reactions were performed in 96-well plates in triplicate and recorded using a microplate spectrophotometer.
(§2) N-benzoyl-L-Arg-pNA, N-benzoyl-L-Tyr-pNA, and N-succinyl-Ala-Ala-Ala-pNA were used as substrates to assay the inhibition of trypsin, chymotrypsin, and elastase, respectively. Enzyme, Tris-HCl buffer (0.05 M, in 0.02 M CaCl2, pH 8.2), and phlorotannins were incubated for 10 min at 25 °C; then, substrate was added for 30 min at 37 °C. The absorbance was recorded at 410 nm. The inhibition ratio was obtained using the following equation:Inhibition (%) = {[1 − (A − B)]/control} × 100 where A was the absorbance of the control (enzyme, assay buffer, and substrate) after 60 min of incubation, and B was the absorbance of tested sample (assay buffer and sample solution) after 60 min of incubation.

[3] = biological target: T2, BACE1 (Homo sapiens, UniProt P56817); experiment: Fluorometric BACE1 inhibition assay; type: biochemical; settings: three independent experiments; log dose inhibition curve; read-out: IC50 (mean ± SD) BACE1
T2 construct: purchased Invitrogen (Pan Vera, Madison, WI, USA)
Experimental: Fluorometric assays with a recombinant human BACE1 or TACE were conducted according to manufacturer instructions. […] The inhibition ratio was obtained using the following equation:Inhibition (%) = [1 − (S − S0)/(C − C0)] × 100 where C was the fluorescence of control (enzyme, assay buffer, and substrate) after 60 min of incubation, C0 was the fluorescence of control at time 0, S was the fluorescence of tested samples (enzyme, sample solution, and substrate) after 60 min of incubation, and S0 was the fluorescence of the tested samples at time 0.

[4] = biological target: T3, human recombinant TACE (α-secretase) (Homo sapiens, UniProt P78536); experiment: Fluorometric TACE inhibition assay; type: biochemical; settings: mean ± SD, read-out: Inhibitory activity TACE (α-Secretase); for inhibition at 50 µM: 50 μM compound; for inhibition at 100 µM: 100 μM compound
T3 construct: purchased R&D Systems (Minneapolis, MN, USA)
Experimental: (§3) Fluorometric assays with a recombinant human BACE1 or TACE were conducted according to manufacturer instructions. Briefly, reaction mixtures containing human recombinant BACE1 (1.0 U/mL), the substrate (75 μM in 50 mM ammonium bicarbonate), and phlorotannins dissolved in an assay buffer (50 mM sodium acetate, pH 4.5) were incubated in darkness for 60 min at 25 °C in well plates. The increase in fluorescence intensity produced by substrate hydrolysis was observed on a fluorescence microplate reader with excitation and emission wavelengths of 545 and 590 nm, respectively. The inhibition ratio was obtained using the following equation:Inhibition (%) = [1 − (S − S0)/(C − C0)] × 100 where C was the fluorescence of control (enzyme, assay buffer, and substrate) after 60 min of incubation, C0 was the fluorescence of control at time 0, S was the fluorescence of tested samples (enzyme, sample solution, and substrate) after 60 min of incubation, and S0 was the fluorescence of the tested samples at time 0.
A human recombinant TACE (0.1 ppm in 25 mM Tris buffer), the substrate (APP peptide […] using EDANS/DABCYL), and phlorotannins were dissolved in an assay buffer, which were then combined and incubated for 60 min in the dark at 25 °C. The increase in fluorescence intensity produced by substrate hydrolysis was observed on a fluorescence microplate reader with excitation and emission wavelengths of 320 and 405 nm, respectively.

[5] = biological target: T4, chymotrypsin (Bos taurus, UniProt P00766); experiment: Colorimetric chymotrypsin inhibition assay; type: biochemical; settings: mean ± SD, read-out: Inhibitory activity Chymotrypsin; for inhibition at 50 µM: 50 μM compound; for inhibition at 100 µM: 100 μM compound
T4 construct: purchased Sigma-Aldrich (St. Louis, MO, USA)
Experimental: as §1, §2

[6] = biological target: T5, AChE (Electrophorus electricus, UniProt O42275); experiment: Enzyme kinetic study of AChE inhibition (Dixon and Lineweaver–Burk plots); type: biochemical, Electrophorus electricus (electric eel); settings: for Ki: Dixon plot; for Inhibition Mode AChE: Lineweaver–Burk plot
T5 construct: purchased Sigma-Aldrich (St. Louis, MO, USA)
Experimental: as §1
(§4) To evaluate the kinetic mechanisms of phlorotannins towards BACE1 and AChE, Dixon and Lineweaver–Burk plots were conducted by various concentrations of substrate and inhibitors. Kinetic parameters such as Ki, Vmax, and Km values were calculated by Sigma Plot 12.3 (Systat Software, Inc., San Jose, CA, USA)

[7] = cited from earlier work
[8] = biological target: T2, BACE1; experiment: Enzyme kinetic study of BACE1 inhibition (Dixon and Lineweaver–Burk plots); type: biochemical; settings: for Ki: Dixon plot; for Inhibition Mode BACE1: Lineweaver–Burk plot
Experimental: as §3, §4

[9] = test system: murine hippocampus neuronal cells; settings: cited from earlier work
[10] = test system: trypsin; experiment: Colorimetric trypsin inhibition assay; type: biochemical; settings: mean ± SD
Experimental: as §1, §2

[11] = biological target: T6, AChE from Electrophorus electricus (electric eel) (Electrophorus electricus, UniProt O42275); experiment: Colorimetric AChE inhibition assay (DTNB); type: biochemical; settings: three independent experiments; log dose inhibition curve; read-out: IC50 (mean ± SD) AChE
T6 construct: purchased Sigma-Aldrich (St. Louis, MO, USA)
Experimental: The colorimetric assays, including AChE, trypsin, chymotrypsin, and elastase were assayed according to previously described methods [36]. […] All reactions were performed in 96-well plates in triplicate and recorded using a microplate spectrophotometer.

[12] = test system: BACE1; settings: phlorotannins from Eisenia bicyclis; cited from earlier work
[13] = test system: ethanol-induced memory impairment mice; settings: oral administration, 10 mg/kg; cited from earlier work
[14] = cited from earlier work; remark: listed apart in the source
[15] = test system: HIV-reverse transcriptase; settings: compared with 8,4′′′-dieckol (diphenyl ether linkage); cited from earlier work

T1 sequence (P00772 27-266): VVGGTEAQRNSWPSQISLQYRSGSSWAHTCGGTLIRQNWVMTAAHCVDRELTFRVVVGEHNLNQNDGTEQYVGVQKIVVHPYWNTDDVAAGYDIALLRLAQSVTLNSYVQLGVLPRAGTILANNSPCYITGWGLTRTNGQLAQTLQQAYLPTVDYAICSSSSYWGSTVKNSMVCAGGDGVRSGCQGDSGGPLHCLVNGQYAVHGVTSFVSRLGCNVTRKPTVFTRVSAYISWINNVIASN
T2 sequence (P56817 46-501): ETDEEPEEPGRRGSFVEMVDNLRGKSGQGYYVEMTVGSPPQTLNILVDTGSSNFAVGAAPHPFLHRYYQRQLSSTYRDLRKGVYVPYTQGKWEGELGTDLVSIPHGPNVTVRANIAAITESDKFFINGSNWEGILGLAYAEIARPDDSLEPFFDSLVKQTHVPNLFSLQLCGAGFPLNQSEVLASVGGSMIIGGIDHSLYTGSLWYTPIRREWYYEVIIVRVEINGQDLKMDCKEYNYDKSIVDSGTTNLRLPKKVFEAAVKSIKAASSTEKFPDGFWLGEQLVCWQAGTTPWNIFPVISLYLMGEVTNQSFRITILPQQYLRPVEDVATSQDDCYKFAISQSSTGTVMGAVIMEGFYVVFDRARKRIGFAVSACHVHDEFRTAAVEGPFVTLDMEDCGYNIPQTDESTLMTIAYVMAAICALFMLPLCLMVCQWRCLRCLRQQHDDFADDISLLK
T3 sequence (P78536 215-824): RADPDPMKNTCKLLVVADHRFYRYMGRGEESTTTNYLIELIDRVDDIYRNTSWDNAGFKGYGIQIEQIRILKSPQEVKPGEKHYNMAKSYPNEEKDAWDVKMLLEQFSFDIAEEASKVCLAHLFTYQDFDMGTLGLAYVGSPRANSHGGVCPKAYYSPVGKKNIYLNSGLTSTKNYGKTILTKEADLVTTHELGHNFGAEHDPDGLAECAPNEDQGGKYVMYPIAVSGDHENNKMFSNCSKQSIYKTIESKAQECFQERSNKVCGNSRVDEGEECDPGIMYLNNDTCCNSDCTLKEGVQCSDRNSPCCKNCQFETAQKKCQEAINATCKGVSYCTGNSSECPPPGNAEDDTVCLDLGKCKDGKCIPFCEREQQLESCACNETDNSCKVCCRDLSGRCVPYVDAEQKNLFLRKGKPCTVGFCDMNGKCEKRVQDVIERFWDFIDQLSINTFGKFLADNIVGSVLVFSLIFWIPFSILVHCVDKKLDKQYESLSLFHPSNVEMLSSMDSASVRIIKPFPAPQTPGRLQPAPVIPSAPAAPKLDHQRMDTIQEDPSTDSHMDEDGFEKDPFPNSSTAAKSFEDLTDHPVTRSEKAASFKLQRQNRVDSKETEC
T6 sequence (O42275 24-633): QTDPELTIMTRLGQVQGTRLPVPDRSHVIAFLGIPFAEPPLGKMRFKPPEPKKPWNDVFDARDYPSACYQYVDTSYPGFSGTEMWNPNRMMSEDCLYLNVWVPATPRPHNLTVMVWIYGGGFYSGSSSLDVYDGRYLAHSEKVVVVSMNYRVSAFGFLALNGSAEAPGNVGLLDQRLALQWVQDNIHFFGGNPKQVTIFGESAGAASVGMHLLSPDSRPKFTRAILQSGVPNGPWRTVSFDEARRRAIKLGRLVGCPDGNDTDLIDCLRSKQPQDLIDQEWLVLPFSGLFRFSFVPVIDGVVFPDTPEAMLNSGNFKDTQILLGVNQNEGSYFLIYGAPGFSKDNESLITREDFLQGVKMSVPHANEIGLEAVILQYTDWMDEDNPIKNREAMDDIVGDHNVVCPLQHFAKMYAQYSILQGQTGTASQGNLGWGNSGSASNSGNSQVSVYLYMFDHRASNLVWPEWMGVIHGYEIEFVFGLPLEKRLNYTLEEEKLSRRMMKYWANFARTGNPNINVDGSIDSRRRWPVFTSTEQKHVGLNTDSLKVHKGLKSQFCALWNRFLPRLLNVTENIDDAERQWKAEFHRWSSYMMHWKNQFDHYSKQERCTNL
T5 sequence (O42275 24-633): as above

Oc1cc(O)cc(Oc2c(O)cc(O)c3c2Oc2c(O)cc(O)cc2O3)c1 [Eckol, 4-(3,5-dihydroxyphenoxy)dibenzo-p-dioxin-1,3,6,8-tetrol]
IC50 [1]: > 800 µM
inhibition at 50 µM [2]: 6.06 ± 0.13%
inhibition at 100 µM [2]: 4.37 ± 0.27%
IC50 [3]: 7.67 ± 0.71 µM
inhibition at 50 µM [4]: 19.3 ± 1.52%
inhibition at 100 µM [4]: 10.6 ± 0.53%
inhibition at 50 µM [5]: 1.48 ± 0.19%
inhibition at 100 µM [5]: 2.65 ± 0.06%
Ki [6]: 37.3 µM
Inhibition Mode AChE [6]: Competitive
Lipinski's requirements for acceptable oral bioavailability [7]: meets Lipinski′s requirements for acceptable oral bioavailability
Ki [8]: 31.2 µM
Inhibition Mode BACE1 [8]: Non-competitive
H2O2-induced oxidative stress [9]: suppressed H2O2-induced oxidative stress
Inhibitory activity Trypsin ([10]; 50 μM compound): 3.59 ± 0.57%
Inhibitory activity Trypsin ([10]; 100 μM compound): 4.73 ± 0.25%
IC50 [11]: 10 ± 0.94 µM

Oc1cc(O)cc(Oc2c(O)cc(O)c3c2Oc2c(O)cc(Oc4c(O)cc(Oc5c(O)cc(O)c6c5Oc5c(O)cc(O)cc5O6)cc4O)cc2O3)c1 [Dieckol, 4-[4-[6-(3,5-dihydroxyphenoxy)-4,7,9-trihydroxydibenzo-p-dioxin-2-yl]oxy-3,5-dihydroxyphenoxy]dibenzo-p-dioxin-1,3,6,8-tetrol]
IC50 [1]: 120 µM
inhibition at 50 µM [2]: 6.7 ± 0.85%
inhibition at 100 µM [2]: 6.2 ± 0.14%
BACE1 inhibitory effect, relative [12]: stronger than eckol
Cognitive ability [13]: improved cognitive ability
IC50 [3]: 2.34 ± 0.1 µM
inhibition at 50 µM [4]: 16.9 ± 1.01%
inhibition at 100 µM [4]: 18.3 ± 0.41%
Penetration into the brain across the blood–brain barrier [14]: successfully penetrated into the brain via crossing the blood–brain barrier
inhibition at 50 µM [5]: 4.39 ± 0.44%
inhibition at 100 µM [5]: 1.43 ± 0.02%
Ki [6]: 12.3 µM
Inhibition Mode AChE [6]: Competitive
Lipinski's requirements for acceptable oral bioavailability [7]: have limitations on bioavailability
Ki [8]: 20.1 µM
Inhibition Mode BACE1 [8]: Non-competitive
H2O2-induced oxidative stress [9]: suppressed H2O2-induced oxidative stress
Inhibitory activity Trypsin ([10]; 50 μM compound): 6.44 ± 0.76%
Inhibitory activity Trypsin ([10]; 100 μM compound): −16.64 ± 1.40%
IC50 [11]: 5.69 ± 0.42 µM

Oc1cc(O)cc(Oc2c(O)cc(O)c3c2Oc2c(cc(O)c(-c4c(O)cc5c(c4O)Oc4c(Oc6cc(O)cc(O)c6)c(O)cc(O)c4O5)c2O)O3)c1 [8,8′-Bieckol, 9-(3,5-dihydroxyphenoxy)-2-[9-(3,5-dihydroxyphenoxy)-1,3,6,8-tetrahydroxydibenzo-p-dioxin-2-yl]dibenzo-p-dioxin-1,3,6,8-tetrol]
IC50 [1]: 40 µM
inhibition at 50 µM [2]: 5.26 ± 0.43%
inhibition at 100 µM [2]: 7.52 ± 0.24%
Inhibitory effect on HIV-reverse transcriptase relative to 8,4′′′-dieckol [15]: tenfold higher
IC50 [3]: 1.62 ± 0.14 µM
inhibition at 50 µM [4]: 11.1 ± 0.53%
inhibition at 100 µM [4]: 3.57 ± 0.05%
inhibition at 50 µM [5]: 0.86 ± 0.02%
inhibition at 100 µM [5]: 0.33 ± 0.01%
Ki [6]: 11.4 µM
Inhibition Mode AChE [6]: Competitive
Lipinski's requirements for acceptable oral bioavailability [7]: have limitations on bioavailability
Ki [8]: 13.9 µM
Inhibition Mode BACE1 [8]: Non-competitive
Inhibitory activity Trypsin ([10]; 50 μM compound): 2.98 ± 0.26%
Inhibitory activity Trypsin ([10]; 100 μM compound): −23.05 ± 0.32%
IC50 [11]: 4.59 ± 0.32 µM
